The text below walks through data of patent US8674115B2, “CRTH2 modulators” (Ironwood Pharmaceuticals, Inc., priority 2009, dated 2014).

The target of assay [1] is T1, CRTH2 (Homo sapiens, UniProt Q9Y5Y4).
T1 sequence (Q9Y5Y4 1-395): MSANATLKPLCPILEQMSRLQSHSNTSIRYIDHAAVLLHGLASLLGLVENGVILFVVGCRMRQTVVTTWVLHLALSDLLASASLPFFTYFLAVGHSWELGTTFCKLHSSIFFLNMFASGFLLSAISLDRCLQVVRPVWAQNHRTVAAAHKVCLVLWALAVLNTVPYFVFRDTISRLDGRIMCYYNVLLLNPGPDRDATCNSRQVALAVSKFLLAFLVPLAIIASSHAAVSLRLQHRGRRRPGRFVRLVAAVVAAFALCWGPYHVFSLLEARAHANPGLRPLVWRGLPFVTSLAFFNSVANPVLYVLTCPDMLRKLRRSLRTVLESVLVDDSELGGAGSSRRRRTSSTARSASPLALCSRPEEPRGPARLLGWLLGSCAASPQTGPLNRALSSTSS
Description: Human whole blood CD11b antagonist assay (CD11b expression in eosinophils). The following applies: challenged with 10 nM 15R-Methyl-PGD2, read-out: CD11b Antag IC50(nM) [HuEos-HuWB-vs10nM15R]. Also noted: endogenous in cells; host or cells: eosinophils in human whole blood. The format is cell-based. How it is done:
Human Whole Blood CD11B Antagonist Assay (Modified from Nicholson, et al. Pulmonary Pharmacology and Therapeutics: 20 (2007); 52-59).
The potential CRTH2 antagonist activity of certain compounds was tested in human whole blood using an assay that tests the ability of the compounds to block the CD11b expression in eosinophils by 15-R-methyl-PGD2. A CRTH2 antagonist should block CD11b expression by subsequently added 15-Methyl-PGD2. Human whole blood (200 μL) was incubated at 37° C. for 10 minutes in the presence of various concentrations of test compounds before being challenged with the agonist 15R-Methyl-PGD2 (10 nM). Reactions were terminated by the addition of ice-cold PBS+0.5% BSA+2 mMEDTA (1 mL) and centrifugation (300×g for 5 minutes at 4° C.) Cells were then incubated at 4° C. for 10 min in the presence of human IgG. Cells were then incubated for 30-45 min with a mixture of PE-Cy5-labeled mouse anti-human CD16 (10 ul; BD Biosciences) and FITC-labeled mouse anti-human CD11b (10 μL; Beckman Coulter.) After rinsing (1 mL ice-cold PBS+0.5% BSA+2 mMEDTA), red blood cells were lysed by the addition of 1 mL ice-cold H2O to the cell pellet for 30 sec-1 min immediately followed by the addition of 3.5% NaCl (300 μL.) Cells were then rinsed (2×-1 ml ice cold PBS+0.5% BSA+2 mMEDTA) and fixed in PBS containing 1% formaldehyde. The distribution of fluorescence intensities was measured by flow cytometry. Eosinophils were gated out on the basis of their granularity (high side scatter) and absence of CD-16. CD11b was then measured on this eosinophil population on the basis of fluorescence due to FITC.

Assay [2] deals with T1, CRTH2. Description: DPBS CD11b antagonist assay (CD11b expression in eosinophils). The format is cell-based. The following applies: challenged with 10 nM 15R-Methyl-PGD2, read-out: CD11b Antag IC50(nM) [HuEos-DPBS-vs10nM15R]. The method, then:
DPBS CD11b Antagonist Assay.
The potential CRTH2 antagonist activity of certain compounds was tested using a CD11b expression assay using essentially the method described by Monneret et al. (J Pharmacol Exp Ther 304:349-55, 2003). Briefly, polymorphonuclear cells (0.5 ml; 10^6/ml cells) in PBS containing 0.9 mM CaCl2 and 0.5 mM MgCl2) were preincubated with various concentrations of test compounds at room temperature for 10 minutes before they were challenged with the agonist 15R-Methyl-PGD2 (10 nM). The incubations were terminated by the addition of ice-cold FACSFlow (BD Biosciences; Cat# 342003) and centrifugation (400 g for 5 minutes at 4° C.). The cells were then incubated for 30 minutes at 4° C. with a mixture of PE-labeled mouse anti-human VLA-4 (5 μl; BD Biosciences) and FITC-labeled mouse anti-human CD11b (10 μl; Beckman Coulter). The cells were then incubated with Optilyse C (0.25 ml; Beckman Coulter) for 15 minutes, centrifuged, and then fixed in PBS (0.4 ml; calcium and magnesium free) containing 1% formaldehyde. The distribution of fluorescence intensities among 60,000 cells was measured by flow cytometry. Eosinophils were gated out on the basis of their granularity (high side scatter) and labeling with VLA-4 (PE fluorescence). CD11b was then measured in the eosinophil region on the basis of fluorescence due to FITC. All data were corrected for the value obtained for the corresponding isotope control antibody.

Consider `Cc1c(Cc2ccccc2S(=O)(=O)c2ccccc2)cc(-c2ccc(C(F)(F)F)cc2)n1CC(=O)O` [I-25, 2-(2-methyl-3-(2-(phenylsulfonyl)benzyl)-5-(4-(trifluoromethyl)phenyl)-1H-pyrrol-1-yl)acetic acid], for which the half-inhibitory concentration (IC50) was > 500 nM at CRTH2 [1] and 5 to 100 nM at CRTH2 [2].
The matching figures for `Cc1nn(CC(=O)O)c(C)c1Cc1ccccc1S(=O)(=O)N1CCCC1` [I-72, 2-(3,5-dimethyl-4-(2-(pyrrolidin-1-ylsulfonyl)benzyl)-1H-pyrazol-1-yl)acetic acid]: > 500 nM and 100 to 500 nM.
Regarding `Cc1c(Cc2ccccc2S(=O)(=O)N2CCOCC2)c(C#N)c(-c2ccccc2)n1CC(=O)O` [I-3, 2-(3-cyano-5-methyl-4-(2-(morpholinosulfonyl)benzyl)-2-phenyl-1H-pyrrol-1-yl)acetic acid], on CRTH2 [1], the IC50 was 5 to 100 nM.
For the compound `Cc1c(Cc2ccccc2S(=O)(=O)c2ccccc2)cc(-c2ccccc2)n1CC(=O)O` [I-6, 2-(2-methyl-5-phenyl-3-(2-(phenylsulfonyl)benzyl)-1H-pyrrol-1-yl)acetic acid], the IC50 was 100 to 500 nM on CRTH2 [1] and < 5 nM on CRTH2 [2].
Consider `Cc1c(Cc2ccccc2S(=O)(=O)c2ccccc2)cc(-c2ccc(F)cc2)n1CC(=O)O` [I-15, 2-(5-(4-fluorophenyl)-2-methyl-3-(2-(phenylsulfonyl)benzyl)-1H-pyrrol-1-yl)acetic acid], for which the concentration for half-maximal inhibition (IC50) at CRTH2 [1] lay in the range of 100 to 500 nM.
Turning to `Cc1cc(Cc2ccccc2S(=O)(=O)N2CCCC2)c(C)n1CC(=O)O` [I-9, 2-(2,5-dimethyl-3-(2-(pyrrolidin-1-ylsulfonyl)benzyl)-1H-pyrrol-1-yl)acetic acid], the IC50 at CRTH2 [1] and on CRTH2 [2] was 5 to 100 nM in each case.
`Cc1c(C#N)c(Cc2ccccc2S(=O)(=O)N2CCCC2)c(C)n1CC(=O)O` [I-32, 2-(3-cyano-2,5-dimethyl-4-(2-(pyrrolidin-1-ylsulfonyl)benzyl)-1H-pyrrol-1-yl)acetic acid]: the half-inhibitory concentration (IC50) is 5 to 100 nM at CRTH2 [1] and < 5 nM at CRTH2 [2].
As to `Cc1c(Cc2ccccc2S(=O)(=O)c2ccccc2)cc(-c2ccncc2)n1CC(=O)O` [I-1, 2-(2-methyl-3-(2-(phenylsulfonyl)benzyl)-5-(pyridin-4-yl)-1H-pyrrol-1-yl)acetic acid], the half-maximal inhibitory concentration (IC50) at CRTH2 [1] is < 5 nM.
Same read-out and setting: for `Cc1c(Cc2ccccc2S(=O)(=O)N2CCCC2)c(C#N)c(-c2ccccc2)n1CC(=O)O` [I-11, 2-(3-cyano-5-methyl-2-phenyl-4-(2-(pyrrolidin-1-ylsulfonyl)benzyl)-1H-pyrrol-1-yl)acetic acid] the value was 5 to 100 nM.
As for `Cc1cc(C(=O)c2ccccc2S(=O)(=O)N2CCOCC2)c(C)n1CC(=O)O` [I-56, 2-(2,5-dimethyl-3-(2-(morpholinosulfonyl)benzoyl)-1H-pyrrol-1-yl)acetic acid], the half-maximal inhibitory concentration (IC50) was 100 to 500 nM at CRTH2 [1] and > 500 nM on CRTH2 [2].
`Cc1c(Cc2ccccc2S(=O)(=O)c2ccccc2)cc(-c2ccccc2F)n1CC(=O)O` [I-18, 2-(5-(2-fluorophenyl)-2-methyl-3-(2-(phenylsulfonyl)benzyl)-1H-pyrrol-1-yl)acetic acid]: at CRTH2 [1], the IC50 is > 500 nM.
In the case of `Cc1c(Cc2ccccc2S(=O)(=O)N2CCCC2)cc(-c2ccccc2)n1CC(=O)O` [I-16], at CRTH2 [1], the 50% inhibitory concentration (IC50) lay in the range of 100 to 500 nM.
On the same count and under the same terms, for `Cc1c(Cc2ccccc2S(=O)(=O)N2CCCC2)c(C#N)c(C2CCCCC2)n1CC(=O)O` [I-14, 2-(3-cyano-2-cyclohexyl-5-methyl-4-(2-(pyrrolidin-1-ylsulfonyl)benzyl)-1H-pyrrol-1-yl)acetic acid] the value was 100 to 500 nM; for `Cc1c(Cc2ccccc2S(=O)(=O)c2ccccc2)cc(-c2cccc(F)c2)n1CC(=O)O` [I-8, 2-(5-(3-fluorophenyl)-2-methyl-3-(2-(phenylsulfonyl)benzyl)-1H-pyrrol-1-yl)acetic acid], 5 to 100 nM.
On to `Cc1cc(Sc2ccccc2S(=O)(=O)N2CCOCC2)c(C)n1CC(=O)O` [I-29, 2-(2,5-dimethyl-3-(2-(morpholinosulfonyl)phenylthio)-1H-pyrrol-1-yl)acetic acid], for which the half-inhibitory concentration (IC50) at CRTH2 [1] was 5 to 100 nM; on CRTH2 [2], < 5 nM.
As for `Cc1c(Cc2ccccc2S(=O)(=O)N2CCCC2)c(C(=O)c2ccccc2)c(C)n1CC(=O)O` [I-55, 2-(3-benzoyl-2,5-dimethyl-4-(2-(pyrrolidin-1-ylsulfonyl)benzyl)-1H-pyrrol-1-yl)acetic acid], the IC50 on CRTH2 [1] was 5 to 100 nM; at CRTH2 [2], < 5 nM.
Regarding `Cc1c(Cc2ccccc2S(=O)(=O)c2ccccc2)cc(-c2cccnc2)n1CC(=O)O` [I-2, 2-(2-methyl-3-(2-(phenylsulfonyl)benzyl)-5-(pyridin-3-yl)-1H-pyrrol-1-yl)acetic acid], at CRTH2 [1], the concentration for half-maximal inhibition (IC50) was 5 to 100 nM.
Same read-out and setting: for `Cc1c(C#N)c(CC(=O)O)c(C)n1Cc1ccccc1S(=O)(=O)N1CCCC1` [I-73, 2-(4-cyano-2,5-dimethyl-1-(2-(pyrrolidin-1-ylsulfonyl)benzyl)-1H-pyrrol-3-yl)acetic acid] the value was > 500 nM.
For the compound `Cc1c(C#N)c(Cc2ccccc2S(=O)(=O)c2ccccc2)c(C)n1CC(=O)O` [I-23, 2-(3-cyano-2,5-dimethyl-4-(2-(phenylsulfonyl)benzyl)-1H-pyrrol-1-yl)acetic acid], the IC50 on CRTH2 [1] was 5 to 100 nM; at CRTH2 [2], < 5 nM.
The matching figures for `Cc1c(C#N)c(Cc2ccccc2S(=O)(=O)N2CCOCC2)c(C)n1CC(=O)O` [I-46, 2-(3-cyano-2,5-dimethyl-4-(2-(morpholinosulfonyl)benzyl)-1H-pyrrol-1-yl)acetic acid]: 5 to 100 nM and 5 to 100 nM.
In the case of `CC(=O)c1c(Cc2ccccc2S(=O)(=O)N2CCCC2)c(C)n(CC(=O)O)c1C` [I-53, 2-(3-acetyl-2,5-dimethyl-4-(2-(pyrrolidin-1-ylsulfonyl)benzyl)-1H-pyrrol-1-yl)acetic acid], the half-maximal inhibitory concentration (IC50) is 5 to 100 nM on CRTH2 [1] and < 5 nM on CRTH2 [2].
With `Cc1c(Cc2ccccc2S(=O)(=O)N2CCOCC2)cc(-c2ccccc2)n1CC(=O)O` [I-13, 2-(2-methyl-3-(2-(morpholinosulfonyl)benzyl)-5-phenyl-1H-pyrrol-1-yl)acetic acid], the concentration for half-maximal inhibition (IC50) on CRTH2 [1] fell in the range of 5 to 100 nM.
For `Cc1c(Cc2ccc(S(=O)(=O)N3CCCC3)cc2)c(C)n(CC(=O)O)c1CCO` [I-20, 2-(2-(2-hydroxyethyl)-3,5-dimethyl-4-(4-(pyrrolidin-1-ylsulfonyl)benzyl)-1H-pyrrol-1-yl)acetic acid], the IC50 on CRTH2 [2] was > 500 nM.
In the case of `Cc1c(Cc2ccccc2S(=O)(=O)c2ccccc2)cc(-c2ccccn2)n1CC(=O)O` [I-17, 2-(2-methyl-3-(2-(phenylsulfonyl)benzyl)-5-(pyridin-2-yl)-1H-pyrrol-1-yl)acetic acid], on CRTH2 [1], the 50% inhibitory concentration (IC50) fell in the range of 100 to 500 nM.
Turning to `Cc1c(Cc2ccccc2S(=O)(=O)c2ccccc2)cc(-c2ccccc2C(F)(F)F)n1CC(=O)O` [I-27, 2-(2-methyl-3-(2-(phenylsulfonyl)benzyl)-5-(2-(trifluoromethyl)phenyl)-1H-pyrrol-1-yl)acetic acid], the half-inhibitory concentration (IC50) on CRTH2 [1] was > 500 nM.
On to `Cc1c(Cc2ccccc2S(=O)(=O)c2ccccc2)c(-c2ccccc2)c(-c2ccccc2)n1CC(=O)O` [I-12, 2-(2-methyl-4,5-diphenyl-3-(2-(phenylsulfonyl)benzyl)-1H-pyrrol-1-yl)acetic acid], for which the IC50 on CRTH2 [1] was in the range of 5 to 100 nM.

By IC50 is commonly meant the concentration needed to halve the response being measured.
